From patent US20260240772A1 (priority 2022, published 2026) come the findings set out here.

Data set [1] deals with normal mice. To be noted: subcutaneous injection 10 mg kg^−1; 5-30 min; FIG. 10B.
In data set [2] the test system is normal mice. Conditions: subcutaneous injection 10 mg kg^−1; 1 hour after injection; FIG. 10G.

As to `CN1CC[C@]23c4c5ccc(O)c4O[C@H]2[C@@H](O)C=C[C@H]3[C@H]1C5` [morphine single drug, morphine], in the data set with normal mice [1], the “heart rate compared with conditions before administration” value is given as “remarkably reduced”. In addition, in the data set on normal mice [2], the “number of fecal particles compared with the solvent group” value was “remarkably reduced”.
